Assay results: patent US7585460B2, “Method for inhibiting the biological acidification of water in contact with materials containing sulfur” (ENI S.p.A., priority 2003, dated 2009)

What was measured:
Type in all cases: cell-based, Thiobacillus
[1] = test system: strains of the Thiobacilli type present in a natural environment; assay: Acidification of TM medium or rainwater with sulfur powder, no inoculation (Example 4)
From the text: To imitate the bacterial growth conditions in a natural environment, the same experiment as Example 1 was repeated without the inoculation of Thiobacilli.
The TM saline medium was compared with a medium consisting of rainwater sterilized at a low temperature by filtration on a membrane of cellulose nitrate (porosity 0.2 microns).
The experiment is aimed at verifying the inhibiting action of NaCl on the acidification of water rich and poor in nutrients in contact with elemental sulfur due to strains of the Thiobacilli type present in a natural environment.

[2] = test system: Thiobacilli (microbial consortium); assay: Comparison of NaCl and SLS, TM medium with sulfur flowers and inoculated mixed culture (Example 6); details: for O.D. / p.H.: B: 33 g/l of NaCl
Protocol: The experiment was aimed at comparing the action of SLS, a known bacteriostatic for Thiobacilli, and Sodium Chloride on the same microbial consortium.
A series of 6 100 ml flasks containing 50 ml of TM medium (with 0.4 g of sulfur flowers), were inoculated with 1 ml of mixed culture containing 10^8 cells/ml.
• A—2 control flasks containing TM and sulfur, without NaCl; • B—2 flasks with TM, sulfur and 33 g/l of NaCl; • C—2 flasks with TM, sulfur and 20 mg/l of SLS (concentration used in literature as bacteriostatic) The pH values and the bacterial growth were measured over a period of 34 days, by means of the increase in the absorbance.

Thiobacilli [3] = assay: Acidification of rainwater over submersed sulfur block wetted with Thiobacilli, outdoors (Example 8); details: 30 g/l NaCl
Protocol: Two blocks of elemental sulfur with an upper surface of approximately 2500 cm^2 (8.5 Kg of sulfur) are positioned in two containers. The upper surface of each block of sulfur is wetted with 250 ml of a bacterial suspension of Thiobacilli containing over 10^8 bacteria per milliliter. The two blocks are subsequently submersed with rainwater. Sodium chloride is added to one of the containers until a concentration of 30 g/l is reached.
The containers are exposed to the outside environment for three months, care being taken to regularly replace the water possibly lost by evaporation. At the end of this period, the pH of the solution in the two containers is measured.

Thiobacilli [4] = assay: Acidification of water on sulfur block treated with salt powder and covered with sand (Example 9); details: about 150 g of salt in powder form on surface, 2 cm sand
Protocol: (§1) Two blocks of elemental sulfur with an upper surface of approximately 2500 cm^2 (8.5 Kg of sulfur) are positioned in two containers. The upper surface of each block of sulfur is wetted with 250 ml of a bacterial suspension of Thiobacilli containing over 10^8 bacteria per milliliter. The surface of one block is then treated with sodium chloride by spreading about 150 g of salt in powder form uniformly distributed. The two blocks are subsequently covered with a 2 cm layer of sand and wetted at regular intervals of time with rainwater until the layer of sand is saturated and the rilling of excess water is produced with respect to the saturation. Rainwater is added every month in a quantity equivalent to a fall of 100 mm.
(§2) The containers are exposed to the outside environment for three months. At the end of this period, the pH of the water in contact with the sulfur in the two containers, is measured.

Thiobacilli [5] = assay: Acidification of water on sulfur block with salt englobed in surface sulfur layer, covered with sand (Example 10); details: 3 mm sulfur layer containing sodium chloride (10%), 2 cm sand
Protocol: as §1, with “containers. The surface of one block is then covered with a fine layer (3 mm) of liquid sulfur containing sodium chloride (10%).” for “containers.”, “milliliter.” for “milliliter. The surface of one block is then treated with sodium chloride by spreading about 150 g of salt in powder form uniformly distributed.”
as §2

## [Cl-].[Na+] [NaCl, Sodium Chloride]
[1]; Rainwater + NaCl, day 0
  pH: 6.0
[1]; Rainwater + NaCl, day 2
  pH: 6.0
[1]; Rainwater + NaCl, day 4
  pH: 6.0
[1]; Rainwater + NaCl, day 7
  pH: 6.0
[1]; Rainwater + NaCl, day 9
  pH: 6.0
[1]; Rainwater + NaCl, day 11
  pH: 6.0
[1]; Rainwater + NaCl, day 14
  pH: 6.0
[1]; Rainwater + NaCl, day 21
  pH: 5.8
[1]; Rainwater + NaCl, day 23
  pH: 5.8
[1]; TM Medium + NaCl, day 0
  pH: 6.0
[1]; TM Medium + NaCl, day 2
  pH: 6.0
[1]; TM Medium + NaCl, day 4
  pH: 6.0
[1]; TM Medium + NaCl, day 7
  pH: 6.0
[1]; TM Medium + NaCl, day 9
  pH: 6.0
[1]; TM Medium + NaCl, day 11
  pH: 6.0
[1]; TM Medium + NaCl, day 14
  pH: 6.0
[1]; TM Medium + NaCl, day 21
  pH: 5.8
[1]; TM Medium + NaCl, day 23
  pH: 5.8
[2]; 33 g/l NaCl vs 20 mg/l SLS, possibly due to the different concentrations
  efficacy of the treatment with respect to that with SLS: greater efficacy
[2]; 33 g/l NaCl, 20 mg/l SLS
  inhibition of the acidification of water in contact with elemental sulfur: capable of inhibiting the acidification
[2]; day 0
  O.D.: 0.014
  p.H.: 6.0
[2]; day 3
  O.D.: 0.015
  p.H.: 6.0
[2]; day 5
  O.D.: 0.017
  p.H.: 6.0
[2]; day 8
  O.D.: 0.023
  p.H.: 5.8
[2]; day 11
  O.D.: 0.028
  p.H.: 5.8
[2]; day 16
  O.D.: 0.025
  p.H.: 5.8
[2]; day 21
  O.D.: 0.026
  p.H.: 5.8
[2]; day 23
  O.D.: 0.022
  p.H.: 5.8
[2]; day 28
  O.D.: 0.022
  p.H.: 5.8
[2]; day 31
  O.D.: 0.026
  p.H.: 5.8
Thiobacilli [3]; day 0
  pH: 6.0
Thiobacilli [3]; day 10
  pH: 5.9
Thiobacilli [3]; day 20
  pH: 5.8
Thiobacilli [3]; day 30
  pH: 5.8
Thiobacilli [3]; day 40
  pH: 5.8
Thiobacilli [3]; day 90
  pH: 5.8
Thiobacilli [4]; day 0
  pH: 6.0
Thiobacilli [4]; day 10
  pH: 5.8
Thiobacilli [4]; day 20
  pH: 5.7
Thiobacilli [4]; day 30
  pH: 5.7
Thiobacilli [4]; day 40
  pH: 5.7
Thiobacilli [4]; day 90
  pH: 5.7
Thiobacilli [5]; day 0
  pH: 6.5
Thiobacilli [5]; day 10
  pH: 6.5
Thiobacilli [5]; day 20
  pH: 6.5
Thiobacilli [5]; day 30
  pH: 6.5
Thiobacilli [5]; day 90
  pH: 6.5
